Experimental data as given in publication PMC5421785, “Citrullination only infrequently impacts peptide binding to HLA class II MHC” (PLoS ONE, 2017).
Read-outs that look alike come from different tables or passages of the source. Square brackets hold non-standard residues; d marks the D form. Peptide text beside a SMILES is read from it. Cit = NC(=O)NCCC[C@H](N)C(=O)O

Assays:
HLA-DRB1*01:01 = biological target: T1, HLA-DRB1*01:01 (Homo sapiens, UniProt P01903+P01911, A100R/D57E/F55L/F60I/F76Y/I96L/L162R/M171V/P40L/Q125E/R42F/V115G/Y59C); assay: HLA class II peptide binding, inhibition of radiolabeled peptide binding to purified MHC
T1 construct: EBV transformed homozygous cell lines were used as sources of MHC molecules; endogenous in cells; host or cells: EBV transformed homozygous cell lines

HLA-DRB1*04:01 = biological target: T2, HLA-DRB1*04:01 (Homo sapiens, UniProt P01903+P01911, A100K/A169T/F76Y/I96L/K127E/L162R/M171V/N62H/P40V/Q125Y/R42H/S133A/S149N/S66Y/V115G/V209L/W38E); assay: as above
T2 construct: EBV transformed homozygous cell lines were used as sources of MHC molecules; endogenous in cells; host or cells: EBV transformed homozygous cell lines

[1] = citrullinated 15-mer (X), purified MHC, inhibition of radiolabeled peptide binding, dash = IC50 >40,000 nM, read-out: DRB1*01:01 binding capacity, Cit peptide (IC50 nM)
[2] = citrullinated 15-mer (X), purified MHC, inhibition of radiolabeled peptide binding, dash = IC50 >40,000 nM, read-out: DRB1*04:01 binding capacity, Cit peptide (IC50 nM)
[3] = citrullinated peptide as listed (X at Cit position), read-out: DRB1*01:01 binding capacity Cit peptide (IC50 nM)
[4] = citrullinated peptide as listed (X at Cit position), read-out: DRB1*04:01 binding capacity Cit peptide (IC50 nM)
[5] = citrullinated 15-mer peptide (X = citrulline), purified HLA-DRB1*01:01, read-out: DRB1*01:01 binding capacity, Cit peptide (IC50 nM)
[6] = citrullinated 15-mer peptide (X = citrulline), purified HLA-DRB1*04:01, read-out: DRB1*04:01 binding capacity, Cit peptide (IC50 nM)

IC50 (HLA-DRB1*01:01; [5]) [nM]	IC50 (HLA-DRB1*04:01; [6]) [nM]	also measured	SMILES
–	–	IC50 (HLA-DRB1*01:01; [1]): 13800 nM; IC50 (HLA-DRB1*04:01; [2]): > 40000 nM	CSCC[C@H](NC(=O)[C@H](CCC(=O)O)NC(=O)[C@H](CCC(=O)O)NC(=O)[C@H](CCC(=O)O)NC(=O)[C@H](Cc1ccc(O)cc1)NC(=O)[C@H](CC(C)C)NC(=O)[C@H](CC(=O)O)NC(=O)CNC(=O)[C@@H](N)CC(C)C)C(=O)N[C@@H](CCCNC(N)=O)C(=O)N[C@@H](CCC(=O)O)C(=O)N[C@@H](CC(C)C)C(=O)N[C@@H](CCCNC(=N)N)C(=O)N[C@@H](CCCNC(=N)N)C(=O)N[C@@H](CCC(N)=O)C(=O)O [LGDLYEEEMXELRRQ]
–	–	IC50 (HLA-DRB1*01:01; [3]): 19700 nM; IC50 (HLA-DRB1*04:01; [4]): > 40000 nM; IC50 (HLA-DRB1*04:01; value of the wild-type (non-citrullinated) counterpart of the listed peptide, read-out: DRB1*04:01 binding capacity WT peptide (IC50 nM)): > 40000 nM	CSCC[C@H](NC(=O)[C@H](Cc1ccc(O)cc1)NC(=O)[C@H](CCC(N)=O)NC(=O)[C@H](CC(C)C)NC(=O)[C@@H]1CCCN1C(=O)[C@H](CC(=O)O)NC(=O)[C@@H]1CCCN1C(=O)CNC(=O)[C@H](CCCCN)NC(=O)[C@H](CCC(=O)O)NC(=O)[C@H](CCCNC(=N)N)NC(=O)[C@@H]1CCCN1C(=O)CNC(=O)[C@@H](N)CC(C)C)C(=O)N[C@@H](CCCNC(N)=O)C(=O)O [LGPREKGPDPLQYMX] (H-LGPREKGPDPLQYM[Cit]-OH)
10900	> 40000	–	CSCC[C@H](NC(=O)[C@H](Cc1ccc(O)cc1)NC(=O)[C@H](CCC(N)=O)NC(=O)[C@H](CC(C)C)NC(=O)[C@@H]1CCCN1C(=O)[C@H](CC(=O)O)NC(=O)[C@@H]1CCCN1C(=O)CNC(=O)[C@H](CCCCN)NC(=O)[C@H](CCC(=O)O)NC(=O)[C@H](CCCNC(N)=O)NC(=O)[C@@H]1CCCN1C(=O)CNC(=O)[C@@H](N)CC(C)C)C(=O)N[C@@H](CCCNC(=N)N)C(=O)O [LGPXEKGPDPLQYMR] (H-LGP[Cit]EKGPDPLQYMR-OH)
220	> 40000	–	CSCC[C@H](NC(=O)[C@@H](NC(=O)CNC(=O)[C@@H](N)CC(C)C)C(C)C)C(=O)N[C@@H](CCC(N)=O)C(=O)NCC(=O)N1CCC[C@H]1C(=O)N[C@@H](CCSC)C(=O)NCC(=O)N1CCC[C@H]1C(=O)N[C@@H](CCSC)C(=O)NCC(=O)N1CCC[C@H]1C(=O)N[C@@H](CCCNC(N)=O)C(=O)NCC(=O)O [LGVMQGPMGPMGPXG] (H-LGVMQGPMGPMGP[Cit]G-OH)
–	–	IC50 (HLA-DRB1*01:01; [1]): 428 nM; IC50 (HLA-DRB1*04:01; [2]): > 40000 nM	CC(C)C[C@H](NC(=O)[C@H](CCC(=O)O)NC(=O)[C@H](C)NC(=O)[C@H](CC(C)C)NC(=O)[C@@H](N)CC(C)C)C(=O)N[C@@H](CCC(=O)O)C(=O)N[C@@H](CCC(N)=O)C(=O)N[C@@H](CC(C)C)C(=O)N[C@@H](CCCCN)C(=O)NCC(=O)N[C@@H](CCC(N)=O)C(=O)NCC(=O)N[C@@H](CCCCN)C(=O)N[C@@H](CO)C(=O)N[C@@H](CCCNC(N)=O)C(=O)O [LLAELEQLKGQGKSX] (H-LLAELEQLKGQGKS[Cit]-OH)
–	–	IC50 (HLA-DRB1*01:01; [3]): 998 nM; IC50 (HLA-DRB1*04:01; [4]): 8740 nM	CC[C@H](C)[C@H](NC(=O)[C@H](CC(C)C)NC(=O)[C@@H](N)CC(C)C)C(=O)N[C@@H](CCC(N)=O)C(=O)NCC(=O)N[C@@H](CO)C(=O)N[C@@H](CC(N)=O)C(=O)N[C@@H](CC(=O)O)C(=O)N[C@H](C(=O)N[C@@H](CCC(=O)O)C(=O)N[C@H](C(=O)N[C@@H](CCCNC(N)=O)C(=O)N[C@@H](C)C(=O)N[C@@H](CCC(=O)O)C(=O)NCC(=O)O)[C@@H](C)CC)C(C)C [LLIQGSNDVEIXAEG] (H-LLIQGSNDVEI[Cit]AEG-OH)
69	4340	–	CC(C)C[C@H](NC(=O)[C@H](CC(N)=O)NC(=O)[C@@H](NC(=O)[C@H](CCC(=O)O)NC(=O)[C@H](CCCNC(N)=O)NC(=O)[C@H](CC(C)C)NC(=O)[C@H](CC(N)=O)NC(=O)[C@@H](N)CC(C)C)[C@@H](C)O)C(=O)N[C@@H](CC(=O)O)C(=O)N[C@@H](CO)C(=O)N[C@@H](CC(C)C)C(=O)N1CCC[C@H]1C(=O)N[C@@H](CC(C)C)C(=O)N[C@H](C(=O)N[C@@H](CC(=O)O)C(=O)O)C(C)C [LNLXETNLDSLPLVD]
18	> 40000	–	CC(C)C[C@H](NC(=O)CNC(=O)[C@H](CCCNC(=N)N)NC(=O)[C@H](C)NC(=O)CNC(=O)[C@@H]1CCCN1C(=O)[C@@H](N)CC(C)C)C(=O)N[C@H](C(=O)NCC(=O)N[C@@H](CCCNC(N)=O)C(=O)N1CCC[C@H]1C(=O)NCC(=O)N[C@@H](CC(=O)O)C(=O)N[C@@H](C)C(=O)NCC(=O)O)[C@@H](C)O [LPGARGLTGXPGDAG] (H-LPGARGLTG[Cit]PGDAG-OH)
2930	> 40000	–	CC(C)C[C@H](NC(=O)CNC(=O)[C@H](CCCNC(N)=O)NC(=O)[C@H](C)NC(=O)CNC(=O)[C@@H]1CCCN1C(=O)[C@@H](N)CC(C)C)C(=O)N[C@H](C(=O)NCC(=O)N[C@@H](CCCNC(=N)N)C(=O)N1CCC[C@H]1C(=O)NCC(=O)N[C@@H](CC(=O)O)C(=O)N[C@@H](C)C(=O)NCC(=O)O)[C@@H](C)O [LPGAXGLTGRPGDAG] (H-LPGA[Cit]GLTGRPGDAG-OH)
